From patent US20060140872A1, “Novel signaling pathway for the production of inglammatory pain and neuropathy” (KOWA CO., LTD., priority 2003, published 2006) come the findings set out here.

The subject of this test is allergic contact dermatitis (picryl chloride-induced dermatitis). Briefly: Mouse model of picryl chloride-induced dermatitis (auricle thickness). In kind it is in vivo, mouse (female BALB/C). The settings on record: applied on left auricle 1 hour before induction; thickness 24 hours after induction; dose not given; FIG. 2.

For `COc1cccc(-c2cc(=O)c3ccccc3o2)c1N` [PD98059, 2-(2-amino-3-methoxyphenyl)-4-oxo-4H-[1]benzopyran], the “suppressive action for allergic contact dermatitis (difference in auricle thickness)” value is “exhibited suppressive action for allergic contact dermatitis”.
